Measurements published in patent US20030129629A1, “Methods and compositions for the identification, assessment, prevention, and therapy of human cancers” (Millennium Pharmaceuticals, Inc., priority 2000, published 2003).
Values joined by “and” are separate entries in the source; they are usually repeats but may differ in a detail not shown here. Equal entries are not always repeated. Where two headings read alike, the source gives them in different places.

Test system: 60 cancer cell lines (NCI 60 cancer cell line series)
Experiment: NCI-DTP in vitro cancer screen, sulforhodamine B (SRB) growth inhibition, 48 hour exposure
Format: cell-based, human
Experimental: Cancer Cell Line Preparation. Sixty cancer cell lines were obtained from the National Cancer Institute Developmental Therapeutics Program (NCI-DTP). Procedures for growing cells and testing compounds have been described previously (Scudiero et al., Cancer Res. 1988, 48:4827-4833; Stinson et al., Anticancer Res.; Myers et al., Electrophoresis 1997, 18:647-653). Cells are plated on day 0 at a density individualized for each cell line so that they will generally be sub-confluent at the end of the assay period. On day 1, a compound is added in the format for a duplicate-well, 5-dose, ten-fold interval dose response study.
No-drug, no-cell and no-growth controls are included. On day 3 the cells are processed for staining with sulforhodamine B (SRB), which reflects the amount of cell mass present at the end of a 48 hour exposure to the test agent. From dose response curves based on the SRB data, various parameters can be determined. […] More precisely, the quantity used in the calculation to be described is the potency measure −log{GI50}.
Activity database (A). […] This subset of compounds was selected from the larger 23,000 compound database available from the DTP. The compounds were selected on the basis of their known mechanism of action and chemical structure. The average potency −log{GI50} was extracted from the comma-delimited text files available through the Web at http://www.nci.nih.gov/intra/lmp/jnwbio.html. Subsequently, these −log{GI50} values were inspected manually and classified as indicating either Low, Medium or High sensitivity to each compound.

O=NN(CCCl)C(=O)NCCCl [BCNU]
sensitivity classification Low(1)/Medium(2)/High(3): 2 and 1 and 3

CS(=O)(=O)OCCCCOS(C)(=O)=O [Busulfan]
classification of cell line as Low(1), Medium(2), High(3) sensitivity to compound (Breast BT-549 CL5013): 1 | classification of cell line as Low(1), Medium(2), High(3) sensitivity to compound (Breast HS-578T CL5006): 1 | classification of cell line as Low(1), Medium(2), High(3) sensitivity to compound (Breast MCF7(I) CL5001): 2 | classification of cell line as Low(1), Medium(2), High(3) sensitivity to compound (Breast MCF7/ADRr CL5002): 2 | classification of cell line as Low(1), Medium(2), High(3) sensitivity to compound (Breast MDA-MB-231 CL5005): 1 | classification of cell line as Low(1), Medium(2), High(3) sensitivity to compound (Breast MDA-MB-435 CL5011): 1 | classification of cell line as Low(1), Medium(2), High(3) sensitivity to compound (Breast MDA-N CL5012): 2 | classification of cell line as Low(1), Medium(2), High(3) sensitivity to compound (Breast T-47D CL5014): 1 | classification of cell line as Low(1), Medium(2), High(3) sensitivity to compound (CNS SF-268 CL12014): 2 | classification of cell line as Low(1), Medium(2), High(3) sensitivity to compound (CNS SF-295 CL12015): 2 | classification of cell line as Low(1), Medium(2), High(3) sensitivity to compound (CNS SF-539 CL12016): 1 | classification of cell line as Low(1), Medium(2), High(3) sensitivity to compound (CNS SNB-19 CL12002): 2 | classification of cell line as Low(1), Medium(2), High(3) sensitivity to compound (CNS SNB-75(I) CL12005): 3 | classification of cell line as Low(1), Medium(2), High(3) sensitivity to compound (CNS U251(I) CL12009): 1 | classification of cell line as Low(1), Medium(2), High(3) sensitivity to compound (Colon COLO-250 CL4010): 2 | classification of cell line as Low(1), Medium(2), High(3) sensitivity to compound (Colon HCC-2998 CL4002): 2 | classification of cell line as Low(1), Medium(2), High(3) sensitivity to compound (Colon HCT-15 CL4015): 2 | classification of cell line as Low(1), Medium(2), High(3) sensitivity to compound (Colon HCT-116 CL4003): 1 | classification of cell line as Low(1), Medium(2), High(3) sensitivity to compound (Colon HT29(I) CL4001): 1 | classification of cell line as Low(1), Medium(2), High(3) sensitivity to compound (Colon KM12 CL4017): 1 | classification of cell line as Low(1), Medium(2), High(3) sensitivity to compound (Colon SW-620 CL4009): 2 | classification of cell line as Low(1), Medium(2), High(3) sensitivity to compound (Leukemia CCRF-CEM(I) CL7003): 3 | classification of cell line as Low(1), Medium(2), High(3) sensitivity to compound (Leukemia HL-60(I) CL7008): 3 | classification of cell line as Low(1), Medium(2), High(3) sensitivity to compound (Leukemia K562(I) CL7005): 2 | classification of cell line as Low(1), Medium(2), High(3) sensitivity to compound (Leukemia MOLT-4 CL7006): 3 | classification of cell line as Low(1), Medium(2), High(3) sensitivity to compound (Leukemia RPMI-8226(I) CL7010): 1 | classification of cell line as Low(1), Medium(2), High(3) sensitivity to compound (Leukemia SR CL7019): 3 | classification of cell line as Low(1), Medium(2), High(3) sensitivity to compound (Melanoma LOX IMVI CL10001): 2 | classification of cell line as Low(1), Medium(2), High(3) sensitivity to compound (Melanoma M14 CL10014): 1 | classification of cell line as Low(1), Medium(2), High(3) sensitivity to compound (Melanoma MALME-3M CL10002): 1 | classification of cell line as Low(1), Medium(2), High(3) sensitivity to compound (Melanoma SK-MEL-2 CL10005): 1 | classification of cell line as Low(1), Medium(2), High(3) sensitivity to compound (Melanoma SK-MEL-5 CL10007): 2 | classification of cell line as Low(1), Medium(2), High(3) sensitivity to compound (Melanoma SK-MEL-28 CL10008): 2 | classification of cell line as Low(1), Medium(2), High(3) sensitivity to compound (Melanoma UACC-62 CL10020): 2 | classification of cell line as Low(1), Medium(2), High(3) sensitivity to compound (Melanoma UACC-257 CL10021): 2 | classification of cell line as Low(1), Medium(2), High(3) sensitivity to compound (NSCLC A549/ATCC CL1004): 2 | classification of cell line as Low(1), Medium(2), High(3) sensitivity to compound (NSCLC EKVX CL1008): 2 | classification of cell line as Low(1), Medium(2), High(3) sensitivity to compound (NSCLC HOP-62 CL1026): 2 | classification of cell line as Low(1), Medium(2), High(3) sensitivity to compound (NSCLC HOP-92 CL1029): 2 | sensitivity classification Low(1)/Medium(2)/High(3) (NSCLC NCI-H23(I) CL1001): 2 | classification of cell line as Low(1), Medium(2), High(3) sensitivity to compound (NSCLC NCI-H226 CL1013): 2 | sensitivity classification Low(1)/Medium(2)/High(3) (NSCLC NCI-H332M CL1017): 1 | sensitivity classification Low(1)/Medium(2)/High(3) (NSCLC NCI-H460 CL1021): 3 | sensitivity classification Low(1)/Medium(2)/High(3) (NSCLC NCI-H522 CL1003): 1 | sensitivity classification Low(1)/Medium(2)/High(3) (Ovarian IGROV1 CL6010): 1 | sensitivity classification Low(1)/Medium(2)/High(3) (Ovarian OVCAR-3 CL6001): 2 | sensitivity classification Low(1)/Medium(2)/High(3) (Ovarian OVCAR-4 CL6002): 2 | sensitivity classification Low(1)/Medium(2)/High(3) (Ovarian OVCAR-5 CL6003): 1 | sensitivity classification Low(1)/Medium(2)/High(3) (Ovarian OVCAR-8 CL6005): 1 | sensitivity classification Low(1)/Medium(2)/High(3) (Ovarian SK-OV-3 CL6011): 1 | sensitivity classification Low(1)/Medium(2)/High(3) (Prostate DU-145 CL11003): 2 | sensitivity classification Low(1)/Medium(2)/High(3) (Prostate PC-3(I) CL11001): 1 | sensitivity classification Low(1)/Medium(2)/High(3) (Renal 786-0 CL9018): 2 | sensitivity classification Low(1)/Medium(2)/High(3) (Renal A498 CL9013): 1 | sensitivity classification Low(1)/Medium(2)/High(3) (Renal ACHN CL9023): 2 | sensitivity classification Low(1)/Medium(2)/High(3) (Renal CAKI-1 CL9015): 3 | sensitivity classification Low(1)/Medium(2)/High(3) (Renal RXF-393 CL9016): 3 | sensitivity classification Low(1)/Medium(2)/High(3) (Renal SN12C CL9008): 2 | sensitivity classification Low(1)/Medium(2)/High(3) (Renal TK10 CL9024): 1 | sensitivity classification Low(1)/Medium(2)/High(3) (Renal UO-31 CL9004): 1
